The source of these data is US20230094952A1, “Method for Culturing Hematopoietic Stem Cells” (Sumitomo Pharma Co., Ltd., priority 2019, published 2023).

Each structure is given as a SMILES string.

The subject of this experiment is mouse long-term hematopoietic stem cells. Nature of the experiment: Reproducibility and concentration dependence test: 1-week culture of sorted Hoxb5-tri-mCherry mouse long-term hematopoietic stem cells, flow cytometry. The experiment is classed as cell-based. Particulars: Table 4, day 7 of culture, n=2. On the procedure:
Mice with insertion of a nucleic acid sequence containing three copies of a gene encoding the fluorescent protein mCherry to the C terminus of the mouse endogenous HoxB5 gene (Hoxb5-tri-mCherry) were used (triple-mCherry Hoxb5 knock-in mice; Non Patent Literature 1). The mice were housed under environmental conditions such that the room temperature and the humidity were 20 to 26° C. and 40 to 70%, respectively, under light for 12 hours and under dark for 12 hours (illumination: 8:00 a.m. to 8:00 p.m.).
Bone marrow cells were collected from the tibia, femur, humerus, and pelvis in each side of each of the mice, and gathered in a mortar. A buffer obtained by adding thermally deactivated bovine serum (manufactured by Gibco) at a final concentration of 2% and EDTA at a final concentration of 2 mM to Ca^2+-free and Mg^2+-free PBS was added, and the resultant was broken with a pestle to obtain a cell population including hematopoietic stem cells.
First, the thus-obtained cell population including hematopoietic stem cells was passed through strainers (meshes) of 100 μm, 70 μm, and 40 μm. The cell population was stained with an APC-binding anti-c-Kit (2B8) and fractionated with anti-APC magnetic beads and an LS column (both manufactured by Miltenyi Biotec) to obtain a cell population enriched with hematopoietic stem cells and progenitor cells.
Subsequently, cells being c-Kit-positive were stained with antibodies for the following cell surface markers.
Staining with the antibodies was performed at 4° C., and the cells were incubated for 30 minutes. For staining with the CD34 antibody, the cells were incubated for 90 minutes. Dead cell staining was performed with SYTOX Red Dead Cell Stain (manufactured by Life Technologies) in accordance with a method recommended by the manufacturer.
Flow cytometry analysis and cell classification (cell sorting) were performed with a FACS Aria II cell sorter (manufactured by BD Biosciences), wherein Lineage-negative, c-Kit-positive, Sca-1-positive, Flk2-negative, CD34-negative or weakly CD34-positive, CD150-positive, and mCherry-positive fractions were regarded as long-term hematopoietic stem cells, and analysis was performed with the software FlowJo (manufactured by Tree Star, Inc.).
The cells after classification were seeded in a 96-well plate. A cell culture medium was prepared by adding Stem Cell Factor (SCF, manufactured by PeproTech, Inc.) and Thrombopoietin (TPO, manufactured by PeproTech, Inc.) to StemSpan SFEM culture medium (manufactured by […] Technologies Inc.) and added in advance to a cell culture 96-well plate (manufactured by BD Biosciences) at 100 μL/well, and the cells sorted with the FACS Aria II cell sorter (BD Biosciences) were then seeded at 10 cells/well.
[…] Thereafter, the cells were cultured in a CO2 incubator under conditions of 37° C. and 5% CO2 for 1 week.
After culture, the cells were stained with the antibodies for the surface markers c-Kit and Sca-1, Ter-119, B220, CD3, CD4, CD8a, Gr-1, and CD11b, and the ratio and post-growth cell count of a KLS fraction (c-Kit^+, Lin^−, Sca-1^+) or an mCherry-positive fraction given with use of a FACS Aria II cell sorter were analyzed by using FlowJo (BD Biosciences). The mCherry-positive fraction is a cell fraction expressing the Hoxb5 gene, and the KLS fraction is a cell fraction being c-Kit-positive, Lin-negative, and Sca-1-positive, and includes hematopoietic stem cells and multipotent progenitor cells as main components. […]

As to `C[C@H]1[C@@H](C(N)=O)O[C@@H]2O[C@@]3(C)CC[C@H]4[C@H](C)CC[C@@H]1[C@@]24OO3` [Example 1-15, (3R,5aS,6R,8aS,9R,10S,12R,12aR)-3,6,9-Trimethyldecahydro-12H-3,12-epoxypyrano[4,3-j][1,2]benzodioxepine-10-carboxamide], the KLS-positive rate runs as follows: (compound 0.1 μM) 6.8%; (compound 0.3 μM) 13.0%; (compound 1 μM) 17.9%; (compound 3 μM) 40.0%; (compound 10 μM) 54.9%. For the same compound, the Viable cell count came to 379.0 cell (compound 0.1 μM); 540.0 cell (compound 0.3 μM); 258.0 cell (compound 1 μM); 111.0 cell (compound 3 μM); 42.5 cell (compound 10 μM). Further, the mCherry-positive rate was 7.1% (compound 0.1 μM); 13.3% (compound 0.3 μM); 47.3% (compound 1 μM); 87.1% (compound 3 μM); 97.6% (compound 10 μM).
Take `C[C@H]1[C@@H](CN)O[C@@H]2O[C@@]3(C)CC[C@H]4[C@H](C)CC[C@@H]1[C@@]24OO3` [Example 1-17, 1-[(3R,5aS,6R,8aS,9R,10S,12R,12aR)-3,6,9-Trimethyldecahydro-12H-3,12-epoxypyrano[4,3-j][1,2]benzodioxepin-10-yl]methanamine]: the KLS-positive rate came to 15.9% (compound 0.1 μM); 16.1% (compound 0.3 μM); 19.4% (compound 1 μM); 24.0% (compound 3 μM); 51.8% (compound 10 μM). Also, the Viable cell count is, setting by setting: (compound 0.1 μM) 947.0 cell; (compound 0.3 μM) 902.0 cell; (compound 1 μM) 641.5 cell; (compound 3 μM) 315.0 cell; (compound 10 μM) 80.0 cell. The mCherry-positive rate reads like this: (compound 0.1 μM) 4.9%; (compound 0.3 μM) 2.5%; (compound 1 μM) 16.1%; (compound 3 μM) 70.1%; (compound 10 μM) 100.0%.
For `C[C@H]1[C@H](CN)O[C@@H]2O[C@@]3(C)CC[C@H]4[C@H](C)CC[C@@H]1[C@@]24OO3` [Example 1-18, 1-[(3R,5aS,6R,8aS,9R,10R,12R,12aR)-3,6,9-Trimethyldecahydro-12H-3,12-epoxypyrano[4,3-j][1,2]benzodioxepin-10-yl]methanamine], the KLS-positive rate (compound 0.1 μM) came out at 10.9%; the KLS-positive rate (compound 0.3 μM) was 16.7%; the KLS-positive rate (compound 1 μM) amounted to 22.4%; the KLS-positive rate (compound 3 μM) is given as 30.9%; the KLS-positive rate (compound 10 μM) was determined as 49.6%. Further, the Viable cell count (compound 0.1 μM) is reported as 405.0 cell; the Viable cell count (compound 0.3 μM) is recorded as 191.0 cell; the Viable cell count (compound 1 μM) is recorded as 162.0 cell; the Viable cell count (compound 3 μM) amounted to 154.0 cell; the Viable cell count (compound 10 μM) amounted to 72.5 cell. The same compound displayed a mCherry-positive rate (compound 0.1 μM) of 23.5%; a mCherry-positive rate (compound 0.3 μM) of 15.4%; a mCherry-positive rate (compound 1 μM) of 19.2%; a mCherry-positive rate (compound 3 μM) of 80.5%; a mCherry-positive rate (compound 10 μM) of 98.6%.
On to `CC(C)O[C@H]1O[C@@H]2O[C@@]3(C)CC[C@H]4[C@H](C)CC[C@@H]([C@H]1C)[C@@]24OO3` [Example 1-19, (3R,5aS,6R,8aS,9R,10S,12R,12aR)-3,6,9-Trimethyl-10-[(propan-2-yl)oxy]decahydro-12H-3,12-epoxypyrano[4,3-j][1,2]benzodioxepine], for which the KLS-positive rate runs as follows: (compound 0.1 μM) 9.5%; (compound 0.3 μM) 41.7%; (compound 1 μM) 4.2%; (compound 3 μM) 0.0%; (compound 10 μM) 0.0%. In addition, the Viable cell count by setting is: (compound 0.1 μM) 469.0 cell; (compound 0.3 μM) 151.0 cell; (compound 1 μM) 6.0 cell; (compound 3 μM) 0.0 cell; (compound 10 μM) 0.5 cell. For the same compound, the mCherry-positive rate by setting is: (compound 0.1 μM) 56.3%; (compound 0.3 μM) 96.2%; (compound 1 μM) 50.0%; (compound 3 μM) 0.0%; (compound 10 μM) 50.0%.
Turning to `C[C@H]1[C@@H](OC2CCCCC2)O[C@@H]2O[C@@]3(C)CC[C@H]4[C@H](C)CC[C@@H]1[C@@]24OO3` [Example 1-20, (3R,5aS,6R,8aS,9R,10S,12R,12aR)-10-(cyclohexyloxy)-3,6,9-trimethyldecahydro-12H-3,12-epoxypyrano[4,3-j][1,2]benzodioxepine], the KLS-positive rate is, setting by setting: (compound 0.1 μM) 0.0%; (compound 0.3 μM) 0.0%; (compound 1 μM) 0.0%; (compound 3 μM) 0.0%; (compound 10 μM) 0.0%. Further, the Viable cell count reads like this: (compound 0.1 μM) 0.0 cell; (compound 0.3 μM) 0.0 cell; (compound 1 μM) 1.0 cell; (compound 3 μM) 0.5 cell; (compound 10 μM) 0.5 cell. Besides, the mCherry-positive rate reads like this: (compound 0.1 μM) 0.0%; (compound 0.3 μM) 0.0%; (compound 1 μM) 0.0%; (compound 3 μM) 50.0%; (compound 10 μM) 50.0%.
For `C[C@H]1[C@@H](Oc2ccccc2)O[C@@H]2O[C@@]3(C)CC[C@H]4[C@H](C)CC[C@@H]1[C@@]24OO3` [Example 1-21, (3R,5aS,6R,8aS,9R,10S,12R,12aR)-3,6,9-trimethyl-10-phenoxydecahydro-12H-3,12-epoxypyrano[4,3-j][1,2]benzodioxepine], the KLS-positive rate by setting is: (compound 0.1 μM) 0.0%; (compound 0.3 μM) 0.0%; (compound 1 μM) 0.0%; (compound 3 μM) 0.0%; (compound 10 μM) 0.0%. For the same compound, the Viable cell count is, setting by setting: (compound 0.1 μM) 0.0 cell; (compound 0.3 μM) 2.0 cell; (compound 1 μM) 0.5 cell; (compound 3 μM) 0.5 cell; (compound 10 μM) 0.5 cell. Moreover, the mCherry-positive rate runs as follows: (compound 0.1 μM) 0.0%; (compound 0.3 μM) 50.0%; (compound 1 μM) 0.0%; (compound 3 μM) 50.0%; (compound 10 μM) 50.0%.
Regarding `C[C@H]1[C@@H](OCC(F)(F)F)O[C@@H]2O[C@@]3(C)CC[C@H]4[C@H](C)CC[C@@H]1[C@@]24OO3` [Example 1-22, (3R,5aS,6R,8aS,9R,10S,12R,12aR)-3,6,9-Trimethyl-10-(2,2,2-trifluoroethoxy)decahydro-12H-3,12-epoxypyrano[4,3-j][1,2]benzodioxepine], the KLS-positive rate by setting is: (compound 0.1 μM) 26.7%; (compound 0.3 μM) 87.0%; (compound 1 μM) 0.0%; (compound 3 μM) 50.0%; (compound 10 μM) 0.0%. Also, the Viable cell count is, setting by setting: (compound 0.1 μM) 216.0 cell; (compound 0.3 μM) 12.5 cell; (compound 1 μM) 0.5 cell; (compound 3 μM) 0.5 cell; (compound 10 μM) 0.5 cell. The compound further returned a mCherry-positive rate (compound 0.1 μM) of 90.9%; a mCherry-positive rate (compound 0.3 μM) of 100.0%; a mCherry-positive rate (compound 1 μM) of 0.0%; a mCherry-positive rate (compound 3 μM) of 50.0%; a mCherry-positive rate (compound 10 μM) of 0.0%.
